In patent US20090061031A1, “Compositions and methods for treating obesity, obesity related disorders and for inhibiting the infectivity of human immunodeficiency virus” (priority 2006, published 2009):
Where “and” joins values, the source holds several entries; their conditions need not be identical. Identical values can stand only once. Like-named read-outs stand apart in the source and are kept apart here.

Assays:
HIV-1 integrase [1] = molecular target: T1, HIV-1 integrase (Human immunodeficiency virus type 1 group M subtype B, UniProt P12497, C1427S/F1332H); assay: HIV-1 integrase 3′-processing assay; format: biochemical; details: 21-mer U3 substrate, read-out: Inhibitory Activity EC50 HIV-1 Integrase 3′-Proc
HIV-1 integrase [2] = molecular target: T1, HIV-1 integrase; assay: HIV-1 integrase disintegration assay; format: biochemical; details: read-out: EC50s of inhibition of disintegration product formation
[3] = molecular target: T2, HIV-1 gp41 fusion core 6HB (N36 + C34) (Human immunodeficiency virus type 1 group M subtype B, UniProt P04578); assay: Fusion core 6HB formation by native PAGE; details: Inhibitory Activity EC50 Fusion Core Formation 6HB (N36 + C34) N-PAGE, N36 pre-incubated with compound
Experimental: (§1) Fusion complex formation was carried out by incubating equimolar amounts of HIV-1 gp41 fusion peptides N36 and C34 in PBS (Phosphate Buffer Saline, containing 50 mM sodium phosphate, pH 7.2 and 150 mM NaCl) at 10 or 20 μM each at 37° C. […] Next, an equimolar amount of C34 was added and the samples incubated for 30 min.
N-PAGE was carried out as previously reported [13] with modifications that involve fusion peptide concentration, order of reactions, and time of incubation in fusion complex formation. Tris-glycine gels (18%, Invitrogen, Carlsbad, Calif.) were electrophoresed at 120 V for 2 h, stained with Coomassie Blue and analyzed by densitometry.

[4] = molecular target: T2, HIV-1 gp41 fusion core 6HB (N36 + C34); assay: Fusion core 6HB formation by circular dichroism spectroscopy
Experimental: as §1
CD spectra were recorded on an AVIV 62-DS CD spectrometer, using 1 mm sample cells and a fixed temperature of 4° C. […] Each spectrum is a smoothed average of 10 scans. The bandwidth for each measurement was 1 nm. […] Prior to calculation of the final ellipticity, all spectra were corrected by subtracting the reference spectra of PBS without peptides.

[5] = tested on: HIV-1 primary isolates, M and T tropic strains from different clades; assay: Activity against a panel of HIV-1 primary isolates; format: cell-based
apoE ko mice = assay: Diet-induced atherosclerosis in Western diet-fed apoE ko mouse; format: in vivo; details: 0.25 mg/ml in drinking water (daily dose 1.25 mg), 4 months
Experimental: To test whether oleuropein reduces diet-induced atherosclerosis, oleuropein was administered to apoE ko mice at various doses from 0.25 mg/ml, 2.5 mg/ml, and 25 mg/ml in the drinking water followed by feeding them with a Western diet containing 42% of calories from fat (Harlan-Teklad). […] The mice were sacrificed, blood and tissues collected. Aortas were dissected from the aortic valve to the iliac bifurcation, opened longitudinally, and pinned to a black wax surface. Atherosclerotic lesions were stained with Oil Red O. The total area of the aorta and the atherosclerotic lesion areas were determined by planimetry using Image Pro software.

HIV-1 [6] = format: cell-based, HIV-1IIIB
HIV-1 integrase [7] = molecular target: T1, HIV-1 integrase; assay: HIV-1 integrase strand-transfer (integration) assay; format: biochemical; details: U3-GT into pUC18, read-out: Inhibitory Activity EC50 HIV-1 Integrase ST
in vitro = details: human
Experimental: Uninfected MT2 and H9 cell lines, and HIV-1IIIB chronically infected H9 (H9/HIV-1IIIB) and HIV-1/IIIB virus, were obtained through the AIDS Research and Reference Reagent Program, NIAID, NIH. […] The cell lines were cultured in RPMI medium 1640 containing 100 U/ml penicillin, 100 μg/ml streptomycin, 2 mM L-glutamine, and 10% heat-inactivated fetal calf serum. Viral stocks were prepared and standardized as described [8].
Cytotoxicity was evaluated by the MTT assay [8].

HIV-1 [8] = assay: HIV-1 core protein p24 production; format: cell-based, HIV-1IIIB; details: Human immunodeficiency virus 1, 50% inhibition, read-out: Anti-HIV Activity EC50 P24
[9] = set-up: species or system C57BL/6 wild-type mice; details: mouse, in vivo, po
Experimental: To verify that we can administer oleuropein chronically to mice, we added purified oleuropein to drinking water at concentrations of 5 μg/ml, 50 μg/ml, 500 μg/ml, and 5 mg/ml. The water intake of mice averages 5 ml per mouse per day, these dosages of oleuropein result in daily doses of 0.025 mg, 0.25 mg, 2.5 mg, and 25 mg per mouse per day (equivalent to 1, 10, 100, and 1000 mg/kg body weight). 5 male and 5 female C57BL/6 wild-type mice were used for each dose of oleuropein, and housed them in metabolic cages that allow precise determination of water intake and quantitative urine collection.
After seven days to 4 months of chronic steady-state administration, mice blood and urine were collected. 100 μl of serum or urine were extracted with 1 ml ethyl acetate, evaporated to dryness, and reconstituted with 25 μl water and 5 μl was injected for LC-MS analysis.
LC-MS quantitation was performed using an HP1100 equipped with diode array detector and ESI-mass spectrometer. LC was done using a C18 column (4×20 mm), with a 4 minute elution using a gradient of 5-95% CH3CN—H2O containing 1% acetic acid. The diode array recordings were made at 280 nm and 230 nm, and the ESI mass spectrum was made in negative detection mode. Purified oleuropein, and hydroxytyrosol (synthesized by us) were used as standards. The injection volumes were 5 μl. […]

[10] = Human immunodeficiency virus 1, syncytial formation, 50% inhibition, read-out: Anti-HIV Activity EC50 Syncytium

T2 sequence (P04578 546-581): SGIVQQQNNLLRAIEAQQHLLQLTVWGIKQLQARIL

Compound | EC50 (HIV-1 integrase [1]) | EC50 (HIV-1 integrase [2]) | EC50 [3] | EC50 [4] | activity against HIV-1 primary isolates [5] | serum levels of oleuropein (apoE ko mice) | EC50 (HIV-1 [6]; Human immunodeficiency virus 1, read-out: average EC50 for syncytial formation) | EC50 (HIV-1 [6]; [10]) | EC50 (HIV-1 integrase [7]) | IC50 (in vitro) | EC50 (HIV-1 [8]) | tolerability in animals [9]
C/C=C1/[C@H](O[C@@H]2O[C@H](CO)[C@@H](O)[C@H](O)[C@H]2O)OC=C(C(=O)OC)[C@H]1CC(=O)OCCc1ccc(O)c(O)c1 (single isomer, unassigned) [Ole, oleuropein] | 46 nM | 28 nM | ~66 nM and 66 nM | 62 nM | active | comparable to those in animals fed a diet supplemented with olive oil | 55 nM | 55 ± 5 nM | 56 nM | > 10000 nM | 73 nM | well tolerated
OCCc1ccc(O)c(O)c1 [HT, hydroxytyrosol] | 54 nM | 18 nM | ~58 nM and 58 nM | 60 nM | active |  |  | 61 nM | 43 nM | > 10000 nM | 68 nM | 
